Read-outs that look alike come from different tables or passages of the source.
Assays:
Melanoma M1585 = assay: MTT proliferation assay, M1585 melanoma; type: cell-based; settings: Homo sapiens; for inhibition at 0.625 µM: disulfiram 0.625 μM; for inhibition at 0.625 µM / inhibition at 1.25 µM / inhibition at 2.5 µM / inhibition at 5 µM: read-out: Mean Percent Inhibition of Growth; for inhibition at 1.25 µM: disulfiram 1.25 μM; for inhibition at 2.5 µM: disulfiram 2.5 μM; for inhibition at 5 µM: disulfiram 5.0 μM
Procedure: (§1) Human malignant cell lines were obtained from American Type Tissue Culture Collection (Rockville, Md.). Melanoma cells lines CRL 1585 and 1619 were cultured in RPMI 1640 (GIBCO-BRL, Life Technologies, Grand Island, N.Y.) with 10% FBS and passed with nonenzymatic Cell Dissociation Solution® (Sigma). The prostate adenocarcinoma cell line CRL 1435 (PC-3) was also cultured in RPMI 1640 with 10% FBS but passed with 0.05% trypsin and 0.53 mM EDTA. The squamous lung carcinoma NCI-H520 and the adenosquamous lung carcinoma NCI-H596 cell lines were grown in RPMI 1640 supplemented with 10% FBS, 10 mM HEPES and 1.0 mM sodium pyruvate and passed with trypsin/EDTA. The small cell lung carcinoma NCI-H82 was cultured as a suspension in RPMI 1640 with 10% FBS. All of the above were grown in a 37° C. humidified environment containing 5% CO2/air. The breast carcinoma cell line MDA-MB-453 was grown in a 37° C. humidified environment with free gas exchange with atmospheric air using Leibovitz's L-15 medium with 2 mM L-glutamine and 10% FBS and was passed with trypsin/EDTA.
The effect of disulfiram (0.15 to 5.0 μM), diethyldithiocarbamate (DDC, 1.0 μM) or PDTC (0.625 to 5.0 μM) on proliferation of malignant cell lines was studied in cultures stimulated with 10% FBS. Cell numbers were quantitated 24-72 hours later. In some experiments disulfiram or PDTC were added immediately after cells were plated. In other experiments, cells were plated and allowed to grow for 24-72 hours before fresh media with disulfiram or PDTC was added, and cell numbers were assayed 24-72 hours later. Synergy was studied between disulfiram and N,N′-bis(2-chloroethyl-N-nitrosourea (carmustine or BCNU, 1.0 to 1,000 μM) or cisplatin (0.1 to 100 μg/ml) added to medium. The effect of metals on disulfiram was studied with 0.2 to 10 μM copper (provided as CuSO4), zinc (as ZnCl2), silver (as silver lactate) or gold (as HAuCl4.3H2O) ions added to growth medium. No pH changes occurred with addition of metal salts to culture medium. To provide a biologically relevant source of copper, in some experiments medium was supplemented with human ceruloplasmin at doses replicating low and high normal adult serum concentrations (250 and 500 μg/ml).
Proliferation of cultured cells was quantitated using a previously reported calorimetric method based upon metabolic reduction of the soluble yellow tetrazolium dye 3-[4,5-dimethylthiazol]-2yl-2,5-diphenyl tetrazolium bromide (MTT) to its insoluble purple formazan by the action of mitochondrial succinyl dehydrogenase (See, e.g., S. J. Hirst, et al., “Quantifying proliferation of cultured human and rabbit airway smooth muscle in response to serum and platelet derived growth factor,” Am. J. Respir. Cell Mol. Biol. 7:574-581 (1992); R. Dashtaki, et al. R., supra; S. S. Brar, et al., “Requirement for reactive oxygen species in serum-induced and platelet-derived growth factor-induced growth of airway smooth muscle,” J. Biol. Chem. 274:20017-20026 (1999)). This assay empirically distinguishes between dead and living cells. For proliferation studies, cells were seeded into 24-well uncoated plastic plates (Costar) at 50,000 cells per well and cultured with respective media and mitogens. After 24-96 hours, medium was removed, cells were washed twice with 1 ml of sterile Dulbecco's modified phosphate buffered saline without Ca^2+ or Mg^2+ (DPBS), the medium was replaced with 1 ml/well fresh medium containing 100 μg/ml MTT, and plates were incubated an additional hour. MTT-containing medium was removed, 0.5 ml dimethylsulfoxide (DMSO) was added to each well, and the absorbance of the solubilized purple formazan dye was measured at 540 nm. A total of 4-6 wells were studied at each treatment condition. Preliminary studies were performed with 50-200 μg/ml MTT incubated for 15 minutes to 3 hours to determine the optimum concentration and incubation time at which the rate of conversion was linear and proportional to the number of cells present. […]

[1] = tested on: Squamous lung carcinoma NCI-H520; assay: MTT proliferation assay, squamous lung carcinoma; type: cell-based; settings: Homo sapiens, treatment initially, after 48 hours, 10% FBS, read-out: Mean Percent Inhibition of Growth
Procedure: as §1
The effect of disulfiram (0.15 to 5.0 μM), diethyldithiocarbamate (DDC, 1.0 μM) or PDTC (0.625 to 5.0 μM) on proliferation of malignant cell lines was studied in cultures stimulated with 10% FBS. Cell numbers were quantitated 24-72 hours later. In some experiments disulfiram or PDTC were added immediately after cells were plated. In other experiments, cells were plated and allowed to grow for 24-72 hours before fresh media with disulfiram or PDTC was added, and cell numbers were assayed 24-72 hours later. […]
Proliferation of cultured cells was quantitated using a previously reported calorimetric method based upon metabolic reduction of the soluble yellow tetrazolium dye 3-[4,5-dimethylthiazol]-2yl-2,5-diphenyl tetrazolium bromide (MTT) to its insoluble purple formazan by the action of mitochondrial succinyl dehydrogenase (See, e.g., S. J. Hirst, et al., “Quantifying proliferation of cultured human and rabbit airway smooth muscle in response to serum and platelet derived growth factor,” Am. J. Respir. Cell Mol. Biol. 7:574-581 (1992); R. Dashtaki, et al. R., supra; S. S. Brar, et al., “Requirement for reactive oxygen species in serum-induced and platelet-derived growth factor-induced growth of airway smooth muscle,” J. Biol. Chem. 274:20017-20026 (1999)). […] MTT-containing medium was removed, 0.5 ml dimethylsulfoxide (DMSO) was added to each well, and the absorbance of the solubilized purple formazan dye was measured at 540 nm. […]

NF-κB = assay: EMSA of treated cells, NF-κB DNA binding; type: cell-based, human; settings: disulfiram plus copper; 12 hours; data not shown
Procedure: Nuclear protein was isolated and DNA binding reactions were performed as previously described in detail (See, […], et al., “Dehydroepiandrosterone and analogs inhibit DNA binding of AP-1 and airway smooth muscle proliferation,” J. Pharmacol. Exper. Ther. 285:[…] (1998); T. Kennedy, et al., “Copper-dependent inflammation and nuclear factor-κB activation by particulate air pollution,” Am. J. Respir. Cell Mol. Biol. 19:366-378 (1998)). Monolayers were washed twice in cold DPBS and equilibrated 10 minutes on ice with 0.7 ml cold cytoplasmic extraction buffer, CEB (10 mM Tris, pH 7.9, 60 mM KCl, 1 mM EDTA, 1 mM DTT) with protease inhibitors, PI (1 mM Pefabloc, 50 μg/ml antipain, 1 μg/ml leupeptin, 1 μg/ml pepstatin, 40 μg/ml bestatin, 3 μg/ml E-64 and 100 μg/ml chymostatin). The detergent Nonidet P-40 (NP-40) was added to a final concentration of 0.1% and cells were dislodged with a cell scraper. Nuclei were pelleted by centrifugation and washed with CEB/PI. […] Competition experiments were performed with 10×unlabeled wild-type oligonucleotide sequences for CRE or […] and 3'-[NT]5'), added before labeled probe. Supershift experiments were performed by incubating the binding reaction with 1 μg of supershifting antibody prior to electrophoresis. […] Gels were dried and analyzed by autoradiography at -80° C. using an image intensifier screen. […]

[2] = tested on: H520 lung carcinoma cells; assay: Trypan blue cytotoxicity, H520; type: cell-based, human; settings: 0.625 μM disulfiram; 36 hours
Procedure: To assess for cytotoxicity, cells were plated at a density of 50,000 per well on 24 well plates and grown for 24 hours. Disulfiram was then added. After an additional 36 hours, medium was removed and replaced with DPBS containing 0.1% trypan blue. Cell death was assessed by counting the average number of trypan blue positive cells per 10×field in 5 random fields for 4 separate wells.

[3] = treatment after 24 hours of growth
[4] = treatment initially, after 48 hours, 10% FBS

With `CCN(CC)C(=S)SSC(=S)N(CC)CC` [Disulfiram, tetraethylthiuram disulfide] the IC50 (Melanoma M1585; M1585 melanoma cells, read-out: 50% inhibitor concentration (IC50)) was 300 nM, the inhibition at 0.625 µM (Melanoma M1585; [3]) was 74 ± 4% and the inhibition at 0.625 µM (Melanoma M1585; [4]) was 100%. It also gave an inhibition at 1.25 µM (Melanoma M1585; [3]) of 49 ± 7%, an inhibition at 1.25 µM (Melanoma M1585; [4]) of 100% and an inhibition at 2.5 µM (Melanoma M1585; [3]) of 41 ± 2%. The inhibition at 2.5 µM (Melanoma M1585; [4]) was 100%, the inhibition at 5 µM (Melanoma M1585; [3]) was 37 ± 6% and the inhibition at 5 µM (Melanoma M1585; [4]) was 100%. The inhibition at 0.625 µM ([1]; disulfiram 0.625 μM) was 76 ± 3%, the inhibition at 1.25 µM ([1]; disulfiram 1.25 μM) was 82 ± 4% and the inhibition at 2.5 µM ([1]; disulfiram 2.5 μM) was 77 ± 4%. For the same compound, the inhibition at 5 µM ([1]; disulfiram 5.0 μM) was 78 ± 3%, the “DNA binding of NF-κB” value (NF-κB) was “inhibited” and the “trypan blue positive cells” value [2] was 94±18 trypan blue positive cells per well.

Source: patent publication US6548540B2, “Method of treating cancer using dithiocarbamate derivatives” (Charlotte-Mecklenburg Hospital Authority, priority 1998, dated 2003)
